# In patent publication US6790971B1, “19-Nor-steroids” (Aventis Pharma S.A., priority 1989, dated 2004):
# System: MCF-7 mammary tumoral cells
# Experiment: Anti-proliferative activity upon the growth of MCF-7 cells (DNA measurement with DABA)
# Format: cell-based
# Details: 6 days, inhibition of the increase of DNA, read-out: concentration which inhibited the growth of MCF7 to an extent of 50% (IC50)
# Method: B. Anti-proliferative activity of the products of the invention upon the growth of MCF-7 mammary tumoral cells.
# The MCF-7 strains were kept under culture in FCS(1) medium at 37° C. under a humid atmosphere containing 5% CO2 and the cells at subconfluence were harvested by trypsination (0.05% trypsine, 0.02% EDTA), then rinsed by gentle centrifugation. A sample of the cells in suspension was counted on Malassez cell.
# The cells, resuspended in FCS medium, were seeded at a rate of 30,000 cells per pit in multi-pit plates (24 pits of 2.5 cm^2) and twenty four hours after seeding (DO), the product to be tested was added to the medium in ethanolic solution (final concentration in ethanol: 0.1%), at a concentration of 10^−12 to 10^−6 M, the control pits receiving the same concentration of ethanol. The media were renewed every 48 hours and at the end of the experiment (D6), the medium was sucked off and the cells were immediately fixed with 150 microliters of methanol to estimate the DNA. The anti-proliferative activity of the products was evaluated by their capacity to inhibit the increase of DNA.
# The DNA was measured by a fluorimetric method employing DABA (3,5-diaminobenzoic acid) (2): 150 microliters of DABA were added to each of the pits and the plates were then incubated for 45 minutes at 56° C., then 2 ml of 1 N HCl were added. The fluorescence was measured with the aid of a fluorimeter (length of the exiting wave: 408 nm, length of the emitting wave: 501 nm). The quantity of DNA per pit was evaluated with reference to a standard scale obtained by treating a standard DNA from calf thymus under the same conditions.
# The concentration in nM which inhibited the growth of MCF7 to an extent of 50% (IC50) was determined in the manner indicated below:
# (1) The fetal calf serum (FCS) culture medium was prepared as follows: MEM medium (minimal essential medium) to which were added:
# Non-essential amino acids (GIBCO),
# Peni-strepto (100 U/ml penicillin, 0.1 mg/ml streptomycin),
# Fetal calf serum containing no steroids (10% final concentration).
# (2) Puzas and Goodman, Analytical Biochemistry, Vol. 86, pp. 50, 1978.
row,Compound,IC50 [nM]
1,"CCCCN(C)C(=O)CCCCCCCCCCC[C@H]1C[C@]2(C)[C@@H](O)CC[C@H]2[C@@H]2CCc3cc(O)ccc3[C@@H]12 [Example 24, N-butyl-3,17β-dihydroxy-N-methyl-11β-Δ^1,3,5(10)-estratriene dodecanamide]",0.06
2,"N-butyl-3,17β-dihydroxy-N-methyl-19-nor-11β-Δ^1,3,5(10)-pregnatrien-20-yn undecanamide [Example 21]",0.02
3,"CC(C)N(C)C(=O)CCCCCCCCCC[C@H]1C[C@]2(C)[C@@H](O)CC[C@H]2[C@@H]2CCc3cc(O)ccc3[C@@H]12 [Example 16, 3,17β-dihydroxy-N-methyl-N-isopropyl-11β-Δ^1,3,5(10)-estratriene undecanamide]",0.02
4,"CCCCN(C)C(=O)CCCCCCCCCC[C@H]1C[C@]2(C)[C@@H](O)CC[C@H]2[C@@H]2CCc3cc(O)ccc3[C@@H]12 [Example 13, N-Butyl-3,17β-Dihydroxy-N-Methyl-11β-Δ^1,3,5(10)-Estratriene-Undecanamide]",0.5
